Legend:
NCI-H1573 = test: Cell proliferation assay (CellTiter-Glo); type: cell-based; details: Homo sapiens, NCI-H1573 cells, 72 h
Method: (§1) All cells were obtained from the cell bank of the American Type Culture Collection (ATCC) and cultured in the supplier's recommended media supplemented with 10% FBS. The cell panel screen was measured using the CellTiter-Glo assay (Promega, Madison, WI) following a standard protocol. Briefly, cancer cells were seeded in 96-well plates and cultured overnight at 37°C with or without 5% CO2 in an incubator. Each compound was dissolved with limited DMSO and diluted to a certain concentration with culture medium and then added to the corresponding well of the cell plate. The final concentration of compound was 20 μM. The control cells (without treatment) received the same amount of DMSO and were incubated under the same conditions. After 72 h cultivation, 100 μL of the CellTiter-Glo reagent was added directly to each well for 10-minute incubation. The plate was then read on a FlexStation 3 microplate luminometer (Molecular Devices, USA) to monitor the luminescence signal generated by the luciferase-catalyzed reaction of luciferin and ATP. The percent of growth inhibition was calculated using the following formula: (untreated cells − treated cells)/(untreated cells − background without cells) ∗ 100.
(§2) For proliferation assays, the CellTiter-Glo assay (Promega, Madison, WI) was used to evaluate the proliferation of cancer cells treated with test compounds as described above. Each compound was dissolved in limited DMSO and diluted to various concentrations with culture medium and then added to the corresponding wells. A dose-response curve was plotted, and the IC50 was calculated using XLfit software.

SW954 = test: Cell proliferation assay (CellTiter-Glo); type: cell-based; details: Homo sapiens, SW 954, SW954 cells, 72 h
Method: as §1, §2

[1] = system: STAT3, ERK, AKT phosphorylation in NCI-H1650 cells; test: Western blot analysis in NCI-H1650 cells; type: cell-based, human; details: 8 h
Method: (§3) Floating and adherent cells were harvested and treated with ice-cold RIPA lysis buffer (50 mM Tris-HCl, pH 7.5, 0.5% cholic acid, 2 mM EDTA, 10% glycerol, 150 mM NaCl, 0.1% SDS, and 1% Triton X-100) containing complete Mini Protease Inhibitor Cocktail (Roche Applied Science, Indianapolis, IN). Proteins were separated by sodium dodecyl sulfate polyacrylamide gel electrophoresis and transferred to nitrocellulose membranes. Membranes were blocked with 5% BSA in washing buffer (100 mM NaCl, 10 mM Tris-HCl, pH 7.5, and 0.1% Tween-20) for 1 hr at room temperature and incubated with the respective primary antibodies in 5% BSA in washing buffer overnight at 4°C with shaking. The membranes were probed with the following antibodies: p44/42 (Cat#9107, CST), phospho-p44/42 (Cat#4370, CST), AKT (Cat#9272, CST), phospho-AKT (ser473) (Cat#9271, CST), STAT3 (Cat#9139, CST), and phospho-STAT3 (Tyr705) (Cat#9131, CST). Membranes were then washed and incubated with anti-mouse or anti-rabbit fluorescent secondary antibodies (LICOR, US) diluted in washing buffer for 1 h at room temperature with shaking. Protein bands were detected using an Odyssey Imaging system (LICOR, US).

[2] = system: phosphorylation of STAT3 upon IL-6 stimulation in HepG2 cells; test: Western blot, IL-6-stimulated STAT3 activation; type: cell-based, human; details: pretreated 2 h, IL-6 10 ng/mL 15 min
Method: as §3

SMILES	IC50 (NCI-H1573) [µM]	IC50 (SW954) [µM]	Phosphorylation of ERK and AKT [1]	STAT3 expression and its phosphorylation (Tyr705) [1]	phosphorylation of STAT3 upon IL-6 stimulation [2]
CC(C)=CCC/C(C)=C/Cc1c(O)c(CC=C(C)C)c2c(c1O)C(=O)C1=C[C@@H]3C[C@H]4C(C)(C)O[C@@](CC=C(C)C)(C3=O)[C@@]14O2 [GB32]	4.36 ± 0.15	2.43 ± 0.17			
CC(C)=CCC[C@@]1(C)C=Cc2c(O)c3c(c(CCC(C)(C)O)c2O1)O[C@]12C(=C[C@@H]4C[C@H]1C(C)(C)O[C@@]2(C/C=C(/C)C(=O)O)C4=O)C3=O [GB39, 33-hydroxyepigambogic acid]	6.08 ± 0.21	0.94 ± 0.04	inhibited	inhibited STAT3 expression and its phosphorylation in a dose-dependent manner	efficiently suppressed
CC(C)=CCC[C@@]1(C)C=Cc2c(O)c3c(c(C/C=C(\C)CO)c2O1)O[C@]12C(=C[C@@H]4C[C@H]1C(C)(C)O[C@@]2(C/C=C(/C)C(=O)O)C4=O)C3=O [GB40, 35-hydroxyepigambogic acid]	5.99 ± 0.19	1.02 ± 0.1	inhibited	inhibited STAT3 expression and its phosphorylation in a dose-dependent manner	efficiently suppressed
CC(C)=CCC/C(C)=C/Cc1c(O)c(CC=C(C)C)c2c(c1O)C(=O)C1=C[C@@H]3C[C@H]4C(C)(C)O[C@@](C/C=C(\C)C(=O)O)(C3=O)[C@@]14O2 [GB63]	7.92 ± 0.29	2.58 ± 0.16			
CC(C)=CCC/C(C)=C/Cc1c(O)c(CC=C(C)C)c2c(c1O)C(=O)C1=C[C@@H]3C[C@H]4C(C)(C)O[C@@](C/C=C(\C)C=O)(C3=O)[C@@]14O2 [GB49]	7.89 ± 0.14	1.88 ± 0.1			
